Molecular target: Pol theta (1-899) (Homo sapiens (Human), UniProt O75417)
Assay: Pol theta ATPase activity, NADH oxidation-coupled enzymatic assay
Assay type: biochemical
Conditions: Pol theta (1-899) 10 nM, ATP, dT50 ssDNA, absorbance 340 nm, 10-point dilution series; read-out: ATPase NADH coupling:Standard Screening:hPolQ IC50
Description: The ability of the compounds of Formula (I) to inhibit ATPase activity of Pol theta (1-899) was determined using the assay described below.
Pol Theta ATPase activity was determined by measuring the rate of ATP turn over in a NADH oxidation-coupled enzymatic assay. 10-point dilution series of compounds were used in a 384 well format for the inhibition assays. Pol theta (1-899) (10 nM) in assay buffer (20 mM Tris HCl (pH 7.80), 80 mM KCl, 10 mM MgCl2, 1 mM DTT, 0.01% BSA, 0.01% Tween, 5% glycerol) was transferred to the test wells (20 μL), except the low control wells (20 μL of assay buffer was added to the low control wells). The plate was then incubated at room temperature for 15 min. An equal volume (20 μL) of 100 μM ATP, 300 nM dT50 (single-stranded DNA (ssDNA) containing 50 thymine bases), 300 μM NADH, 6 mM PEP, 10 U/mL lactate dehydrogenase and 20 U/mL pyruvate kinase in assay buffer was added to all the test wells. The plate was then centrifuged at 1000 rpm for 1 min. The reaction was monitored for 30 min by measuring absorbance (λ=340 nm) in a Tecan Spark multimode plate reader every minute. The high control (DMSO with enzyme) with low absorbance intensity represents no inhibition of ATPase reaction while the low control (DMSO with buffer) with high absorbance intensity represents full inhibition of ATPase activity. Slope of the reaction progress curves were used to calculate the rate of ATP hydrolysis. The rates were used to determine the percent inhibition using a four-parameter inhibition model to generate IC50, Hill slope and max inhibition.

Chain of Pol theta (1-899) (O75417 1-899): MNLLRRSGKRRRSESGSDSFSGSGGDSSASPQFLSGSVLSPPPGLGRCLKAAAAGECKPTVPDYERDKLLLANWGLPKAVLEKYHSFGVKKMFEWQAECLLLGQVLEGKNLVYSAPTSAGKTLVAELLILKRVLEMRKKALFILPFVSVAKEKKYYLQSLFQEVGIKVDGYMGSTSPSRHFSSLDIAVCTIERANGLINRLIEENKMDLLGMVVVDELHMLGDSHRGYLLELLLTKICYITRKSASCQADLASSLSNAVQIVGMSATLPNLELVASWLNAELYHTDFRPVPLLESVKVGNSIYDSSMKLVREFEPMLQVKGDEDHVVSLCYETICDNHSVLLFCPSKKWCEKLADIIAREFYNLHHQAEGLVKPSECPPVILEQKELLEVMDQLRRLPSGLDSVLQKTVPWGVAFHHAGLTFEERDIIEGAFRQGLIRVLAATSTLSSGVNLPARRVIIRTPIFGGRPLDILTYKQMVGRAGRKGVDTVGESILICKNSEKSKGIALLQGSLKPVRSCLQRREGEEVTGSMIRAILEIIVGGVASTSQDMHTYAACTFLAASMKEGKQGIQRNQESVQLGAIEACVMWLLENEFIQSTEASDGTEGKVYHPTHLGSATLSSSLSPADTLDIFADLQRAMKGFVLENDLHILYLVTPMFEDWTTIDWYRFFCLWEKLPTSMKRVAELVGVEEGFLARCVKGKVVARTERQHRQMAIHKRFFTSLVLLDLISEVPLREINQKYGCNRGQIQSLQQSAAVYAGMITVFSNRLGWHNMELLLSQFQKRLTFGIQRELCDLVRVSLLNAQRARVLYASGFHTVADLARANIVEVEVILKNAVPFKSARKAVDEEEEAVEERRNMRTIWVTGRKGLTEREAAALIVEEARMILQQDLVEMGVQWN

Compound	IC50 [nM]
CS(=O)(=O)N1CCN(c2ncccc2C(=O)Nc2nnc(OCc3ccc(Cl)cn3)s2)CC1 [Example 23, N-(5-((5-chloropyridin-2-yl)methoxy)-1,3,4-thiadiazol-2-yl)-2-(4-(methylsulfonyl)piperazin-1-yl)nicotinamide]	1000 to 10000
O=C(Nc1nnc(OCc2ccc(Cl)cn2)s1)c1ccnn1-c1ccccc1 [Example 24, N-(5-((5-chloropyridin-2-yl)methoxy)-1,3,4-thiadiazol-2-yl)-1-phenyl-1H-pyrazole-5-carboxamide]	1000 to 10000
O=C(Nc1nnc(OCc2ccc(Cl)cn2)s1)c1cnnn1-c1ccccc1 [Example 25, N-(5-((5-chloropyridin-2-yl)methoxy)-1,3,4-thiadiazol-2-yl)-1-phenyl-1H-1,2,3-triazole-5-carboxamide]	1000 to 10000
O=C(Nc1nnc(OCc2ccc(Cl)cn2)s1)c1cncn1-c1ccccc1Cl [Example 26, 3-(2-chlorophenyl)-N-[5-[(5-chloropyridin-2-yl)methoxy]-1,3,4-thiadiazol-2-yl]imidazole-4-carboxamide]	200 to 500
COc1ccc(-n2cncc2C(=O)Nc2nnc(OCc3ccc(Cl)cc3)s2)c(OC)c1 [Example 31, N-(5-((4-chlorobenzyl)oxy)-1,3,4-thiadiazol-2-yl)-1-(2,4-dimethoxyphenyl)-1H-imidazole-5-carboxamide]	≤ 200
COc1cc(N2CCOCC2)c(C(=O)Nc2nnc(OCc3ccc(Cl)cn3)s2)cn1 [Example 36, N-(5-((5-chloropyridin-2-yl)methoxy)-1,3,4-thiadiazol-2-yl)-6-methoxy-4-morpholinonicotinamide]	1000 to 10000
O=C(Nc1nnc(OCc2ccc(Cl)cn2)s1)c1cccnc1N1CCS(=O)(=O)CC1 [Example 37, N-(5-((5-chloropyridin-2-yl)methoxy)-1,3,4-thiadiazol-2-yl)-2-(1,1-dioxidothiomorpholino)nicotinamide]	1000 to 10000
O=C(Nc1nnc(OCc2ccc(Cl)cn2)s1)c1cncn1-c1ccccn1 [Example 38, N-(5-((5-chloropyridin-2-yl)methoxy)-1,3,4-thiadiazol-2-yl)-1-(pyridin-2-yl)-1H-imidazole-5-carboxamide]	1000 to 10000
O=C(Nc1nnc(OCc2ccc(Cl)cn2)s1)c1cccnc1N1CCC(F)(F)CC1 [Example 39, N-(5-((5-chloropyridin-2-yl)methoxy)-1,3,4-thiadiazol-2-yl)-2-(4,4-difluoropiperidin-1-yl)nicotinamide]	1000 to 10000
O=C(Nc1nnc(OCc2ccc(Cl)cc2)s1)c1cncn1-c1ccccc1Cl [Example 42, N-(5-((4-chlorobenzyl)oxy)-1,3,4-thiadiazol-2-yl)-1-(2-chlorophenyl)-1H-imidazole-5-carboxamide]	≤ 200
N#Cc1ccccc1-n1cncc1C(=O)Nc1nnc(OCc2ccc(Cl)cc2)s1 [Example 43, N-(5-((4-chlorobenzyl)oxy)-1,3,4-thiadiazol-2-yl)-1-(2-cyanophenyl)-1H-imidazole-5-carboxamide]	200 to 500
COc1cccc(-n2cncc2C(=O)Nc2nnc(OCc3ccc(Cl)cc3)s2)c1 [Example 49, N-(5-((4-chlorobenzyl)oxy)-1,3,4-thiadiazol-2-yl)-1-(3-methoxyphenyl)-1H-imidazole-5-carboxamide]	500 to 1000
COc1ccccc1-n1cncc1C(=O)Nc1nnc(OCc2ccc(Cl)cc2)s1 [Example 50, N-(5-((4-chlorobenzyl)oxy)-1,3,4-thiadiazol-2-yl)-1-(2-methoxyphenyl)-1H-imidazole-5-carboxamide]	≤ 200
O=C(Nc1nnc(OCc2ccc(Cl)cn2)s1)c1cccnc1-c1ccccc1Cl [Example 51, 2-(2-chlorophenyl)-N-[5-[(5-chloropyridin-2-yl)methoxy]-1,3,4-thiadiazol-2-yl]pyridine-3-carboxamide]	1000 to 10000
O=C(Nc1nnc(OCc2ccc(Cl)cc2)s1)c1cncn1C1CCOCC1 [Example 55, N-(5-((4-chlorobenzyl)oxy)-1,3,4-thiadiazol-2-yl)-1-(tetrahydro-2H-pyran-4-yl)-1H-imidazole-5-carboxamide]	1000 to 10000

The remaining lines, values ahead:

IC50 [nM]	Compound
1000 to 10000	NC(=O)c1ccc(C(=O)Nc2nnc(OCc3ccc(Cl)cc3)s2)c(N2CCOCC2)n1 [Example 21, N^5-(5-((4-chlorobenzyl)oxy)-1,3,4-thiadiazol-2-yl)-6-morpholinopyridine-2,5-dicarboxamide]
1000 to 10000	C[C@@H]1COCCN1c1ncccc1C(=O)Nc1nnc(OCc2ccc(Cl)cn2)s1 [Example 22, (R)—N-(5-((5-chloropyridin-2-yl)methoxy)-1,3,4-thiadiazol-2-yl)-2-(3-methylmorpholino)nicotinamide]
200 to 500	O=C1CN(c2ncccc2C(=O)Nc2nnc(OCc3ccc(Cl)cc3)s2)CCN1 [Example 27, N-(5-((4-chlorobenzyl)oxy)-1,3,4-thiadiazol-2-yl)-2-(3-oxopiperazin-1-yl)nicotinamide]
1000 to 10000	CN(C)C(=O)N1CCN(c2ncccc2C(=O)Nc2nnc(OCc3ccc(Cl)cc3)s2)CC1 [Example 28, 4-(3-((5-((4-chlorobenzyl)oxy)-1,3,4-thiadiazol-2-yl)carbamoyl)pyridin-2-yl)-N,N-dimethylpiperazine-1-carboxamide]
≤ 200	O=C(Nc1nnc(OCc2ccc(Cl)cc2)s1)c1cccnc1N1CCOC2(CC2)C1 [Example 30, N-(5-((4-chlorobenzyl)oxy)-1,3,4-thiadiazol-2-yl)-2-(4-oxa-7-azaspiro[2.5]octan-7-yl)nicotinamide]
200 to 500	N#Cc1ccc(C(=O)Nc2nnc(OCc3ccc(Cl)cn3)s2)c(N2CCOCC2)n1 [Example 32]
500 to 1000	N#Cc1cnc(N2CCOCC2)c(C(=O)Nc2nnc(OCc3ccc(Cl)cn3)s2)c1 [Example 33, N-(5-((5-chloropyridin-2-yl)methoxy)-1,3,4-thiadiazol-2-yl)-5-cyano-2-morpholinonicotinamide]
1000 to 10000	COc1cc(COc2nnc(NC(=O)c3cccnc3N3CCOCC3)s2)ccc1Cl [Example 34, N-(5-((4-chloro-3-methoxybenzyl)oxy)-1,3,4-thiadiazol-2-yl)-2-morpholinonicotinamide]
≤ 200	N#Cc1cc(N2CCOCC2)c(C(=O)Nc2nnc(OCc3ccc(Cl)cc3)s2)cn1 [Example 35, N-(5-((4-chlorobenzyl)oxy)-1,3,4-thiadiazol-2-yl)-6-cyano-4-morpholinonicotinamide]
200 to 500	O=C(Nc1nnc(OCc2ccc(Br)cc2)s1)c1cccnc1N1CCOCC1 [Example 40, N-(5-((4-bromobenzyl)oxy)-1,3,4-thiadiazol-2-yl)-2-morpholinonicotinamide]
1000 to 10000	O=C(Nc1nnc(OCc2ccc(Cl)cc2)s1)c1c[nH]c(=O)cc1N1CCOCC1 [Example 41, N-(5-((4-chlorobenzyl)oxy)-1,3,4-thiadiazol-2-yl)-4-morpholino-6-oxo-1,6-dihydropyridine-3-carboxamide or its tautomer N-(5-((4-chlorobenzyl)oxy)-1,3,4-thiadiazol-2-yl)-6-hydroxy-4-morpholinonicotinamide]
≤ 200	N#Cc1ccc(C(=O)Nc2nnc(OCc3ccc(Cl)cc3)s2)c(N2CCOC3(CC3)C2)n1 [Example 44, N-(5-((4-chlorobenzyl)oxy)-1,3,4-thiadiazol-2-yl)-6-cyano-2-(4-oxa-7-azaspiro[2.5]octan-7-yl)nicotinamide]
500 to 1000	CN1CCN(c2ncccc2C(=O)Nc2nnc(OCc3ccc(Cl)cc3)s2)CC1=O [Example 45, N-[5-[(4-chlorophenyl)methoxy]-1,3,4-thiadiazol-2-yl]-2-(4-methyl-3-oxopiperazin-1-yl)pyridine-3-carboxamide]
200 to 500	O=C(Nc1nnc(OCc2ccc(C3CC3)cc2)s1)c1cccnc1N1CCOCC1 [Example 47, N-(5-((4-cyclopropylbenzyl)oxy)-1,3,4-thiadiazol-2-yl)-2-morpholinonicotinamide]
200 to 500	NC(=O)c1cc(N2CCOCC2)c(C(=O)Nc2nnc(OCc3ccc(Cl)cc3)s2)cn1 [Example 48, N^5-(5-((4-chlorobenzyl)oxy)-1,3,4-thiadiazol-2-yl)-4-morpholinopyridine-2,5-dicarboxamide]
500 to 1000	O=C(Nc1nnc(OCc2ccc(Cl)cc2)s1)c1cccnc1C1=CCOCC1 [Example 53, N-(5-((4-chlorobenzyl)oxy)-1,3,4-thiadiazol-2-yl)-2-(3,6-dihydro-2H-pyran-4-yl)nicotinamide]
500 to 1000	O=C(Nc1nnc(OCc2ccc(Cl)cc2)s1)c1cccnc1C1CCOCC1 [Example 54, N-[5-[(4-chlorophenyl)methoxy]-1,3,4-thiadiazol-2-yl]-2-(oxan-4-yl)pyridine-3-carboxamide]
1000 to 10000	O=C(Nc1nnc(OCc2ccc(C3COC3)cc2)s1)c1cccnc1N1CCOCC1 [Example 56, 2-morpholino-N-(5-((4-(oxetan-3-yl)benzyl)oxy)-1,3,4-thiadiazol-2-yl)nicotinamide]
500 to 1000	O=C(Nc1nnc(OCc2ccc(Cl)cc2)s1)c1ccc(Br)nc1N1CCOCC1 [Example 58, 6-bromo-N-(5-((4-chlorobenzyl)oxy)-1,3,4-thiadiazol-2-yl)-2-morpholinonicotinamide]

Source: patent publication US12509454B2, “Thiadiazolyl derivatives” (IDEAYA Biosciences, Inc., priority 2019, dated 2025)
